Results as given in US20070270371A1, “Dosing and scheduling of oligomers” (priority 2006, published 2007).
{FAM} = fluorescein (FAM) label

What was measured:
[1] = system: PC-3-Bcl-2 xenograft tumors; details: mouse, in vivo
Protocol: When the average tumor size was 65 mm^3, animals were randomized and the right flank of the xenograft tumor bearing mice were pre-treated with 5 Gy X-ray prior to administration of fluoresceinated G3139 oligonucleotide intravenously at a low dose of 6 mg/kg, daily for 5 days (top left panel); at a high dose of 10 mg/kg on given intermittently on days 1, 3, and 5 (top middle panel); a single dose of 30 mg/kg on the same day of X-ray pre-treatment (top right panel); and non-treated left flank bearing xenograft tumor (bottom 3 panels). Each mouse received a total dose of 30 mg/kg fluorescent G3139.
On day 8, animals were sacrificed, subcutaneous and organs were resected, and counterstained with DAPI as an internal staining control for nucleus staining. The resected tissues were processed as in Example 1 described above and fluorescence intensity was recorded using a stereomicroscope (Zeiss, 40) and spot camera (Qimaging). The signal intensity was recorded in three areas of each sample and quantified using MCID Elite (Imaging Research) and averaged to yield the reported intensities.

[2] = system: A549 NSCLC xenograft tumors; test: Tumor growth of NSCLC xenografts under G3139 dosing schedules (Example 4); format: in vivo, mice
Protocol: In vivo tumor model: NSCLC xenograft tumors were established in the flank of male athymic nude mice by injecting subcutaneously 5 to 9×10^6 A549 tumor cells. […] Twenty mg/kg injections every other days for 4 weeks (total 14 days) were also carried. At 30 mg/kg and 40 mg/kg, mice were injected every two- or three-day intervals respectively. (FIG. 6). The tumor growth were measured 15 - 55 days post-implantation and the tumor volumes were calculated based on the formula: [(width)^2×length]/2. […] Tumors in mice injected with higher doses but interminttently with 2-3 days intervals also grew slower than mice treated with daily doses at lower doses.

[3] = human, in vivo, iv; cited from earlier work
[4] = in vivo, sc; cited from earlier work

| Substance | staining of tumor cells [1] | tumor growth ([2]; 20 mg/kg IP every other day vs 10 mg/kg daily (total 280 mg/kg), 15-55 days post-implantation) | tumor growth ([2]; higher doses intermittently at 2-3 day intervals vs daily lower doses) | plasma half life [3] | time until plasma concentration becomes undetectable [3] | mean plasma half-life for elimination [4] | steady state plasma levels observed after the beginning of infusion [4] | persistence of the oligonucleotide in tumor after administration of radiation and G3139 ([1]; iv, 30 mg/kg) |
| --- | --- | --- | --- | --- | --- | --- | --- | --- |
| FAM-G3139: fluorescent G3139, F - TCTCCCAGCGTGCGCCAT-3′, phosphorothioate oligonucleotide targeting bcl-2 (all phosphorothioate, 5' {FAM}, sugars by position and methylation of C not given here) | no visible staining | – | – | – | – | – | – | – |
| oblimersen [G3139] | – | grew slower | grew slower | about 60 minutes | ≤ 4 h | 7.46 h | 48 h | 7 days |
